This note sets out measurements from patent publication US20060178372A1, “Therapeutic quinoline compounds” (AstraZeneca AB, priority 2001, published 2006).

Data set [1] relates to guinea pigs. The data set can be described thus: learned helplessness test for antidepressant/antianxiety activity. The class given is in vivo. The following applies: guinea pig. An excerpt:
The utility of the compounds for example to treat depression may be shown via a learned helplessness test in guinea pigs, which is used extensively as correlative to antidepressant activity in humans. The learned helplessness test may be carried out as follows: Seventy male Hartley guinea pigs, each weighing about 350-425 gm are fed ad lib, and are housed under a 12-hour light/dark cycle. The procedure consists of two phases: The induction phase and the avoidance training phase. In the induction phase, subjects are placed into standard shuttle cages (20 L×16 W×21 centimeters H) which are fitted with a grid floor. Electrical stimulation (1.25 mA, 10 sec duration) is delivered to the floor of the cage every 90-sec during 1 hour daily sessions. Subjects have no opportunity to escape or to avoid shocks. Induction is conducted for 2 consecutive days.
In avoidance training, testing is also conducted in the shuttle cages, except that the subjects are not returned to the same chamber in which induction had occurred. Additionally, all cages are fitted with a partition with an arch in the center of the cage, through which animals can pass between the left and right halves of the cage. The procedure employed is a standard shuttle avoidance procedure in which a compound, conditioned stimulus (a 10-sec presentation of a tone and turning on of a lamp on the side of the cage that the guinea pig was occupying) serves to indicate presentation of electrical current to the floor of the cage. Shock is presented for a 5 sec period, 5 sec after initiation of the conditioned stimulus. Entry into the opposite side of the shuttle cage via the arched partition prior to shock onset results in the end of the trial (avoidance response). If shock is delivered, entry into the opposite side of the cage results in termination of the shock and CS (escape). Reversal of learned helplessness in the induction subjects correlates to antidepressant activity of the test compound.
Avoidance training, 45-min in duration, is conducted on 2 consecutive days, beginning 48 hr after the final induction session. Seventy subjects are assigned to 1 of 6 groups of 11-12 animals. The groups are as follows:
1) No induction group. The subjects are placed into the shuttle cages but are not given inescapable shock, the animals are subsequently trained in the avoidance procedure and the vehicle is administered;
2) Induction vehicle control group;
3) Imipramine 17.8 mg/kg;
5) 1 mg/kg compounds; and
Groups 2-6 are given induction and avoidance training sessions. Injections are administered immediately following induction sessions and 1 hour prior to avoidance training sessions. A second injection is administered 7-8 hours following the first injection, for a total of 9 injections administered over 5 days. […]

Each structure is given as a SMILES string.

A word on the melting point: it is the temperature, or range, at which the solid turns liquid. `CN1CCN(c2cc(F)cc3c(=O)cc(C(=O)Nc4ccc(N5CCN(C(=O)CCO)CC5)cc4)oc23)CC1` [Example 73, 6-Fluoro-8-(4-methyl-piperazin-1-yl)-4-oxo-4H-chromene-2-carboxylic acid {4-[4-(3-hydroxy-propanoyl)-piperazin-1-yl]-phenyl}-amide] came in with a melting point of 195 to 199 °C.

On to `CCS(=O)(=O)N1CCN(c2ccc(NC(=O)c3cc(=O)c4cc(F)cc(N5CCN(C)CC5)c4o3)cc2)CC1` [Example 71, 6-Fluoro-8-(4-methyl-piperazin-1-yl)-4-oxo-4H-chromene-2-carboxylic acid [4-(4-ethane sulfonyl-piperazin-1-yl)-phenyl]-amide], for which the melting point is 233 to 234 °C. Moreover, the “activity in the learned helplessness assay” value (“activity” below) in data set [1] is reported as “demonstrate activity”. Take `COc1cc(N2CCN(C)CC2)c2oc(C(=O)Nc3ccc(N4CCN(C(=O)CCO)CC4)cc3)cc(=O)c2c1` [Example 68, 6-Methoxy-8-(4-methyl-piperazin-1-yl)-4-oxo-4H-chromene-2-carboxylic acid {4-[4-(3-hydroxy-propanoyl)-piperazin-1-yl]-phenyl}-amide]: the melting point is 195 to 197 °C. Regarding `CN1CCN(c2cccc3c(=O)cc(C(=O)Nc4ccc(N5CCOCC5)cc4)oc23)CC1` [Example 1, 8-(4-methyl-1-piperazinyl)-N-[4-(4-morpholinyl)phenyl]-4-oxo-4H-chromene-2-carboxamide], the melting point was 217 to 218 °C (dec.).

For `CN1CCN(c2cccc3c2OC(C(=O)Nc2ccc(N4CCOCC4)cc2)CC3=O)CC1` (single isomer, unassigned) [Example 79, 8-(4-Methyl-piperazin-1-yl)-4-oxo-chroman-2-carboxylic acid (4-morpholin-4-yl-phenyl)-amide (faster running isomer)], the melting point is 216 °C (dec.). With `CN1CCN(c2cccc3c2OC(C(=O)Nc2ccc(N4CCOCC4)cc2)CC3=O)CC1` (single isomer, unassigned) [Example 80, 8-(4-Methyl-piperazin-1-yl)-4-oxo-chroman-2-carboxylic acid (4-morpholin-4-yl-phenyl)-amide (slower running isomer)], the melting point is 215 °C (dec.). `CN1CCN(c2cccc3c(=O)cc(C(=O)Nc4ccc(N5CCOCC5)cc4O)oc23)CC1` [Example 22, 8-(4-Methyl-piperazin-1-yl)-4-oxo-4H-chromene-2-carboxylic acid (2-hydroxy-4-morpholin-4-yl-phenyl)-amide] displayed a melting point of 248.4 to 249.6 °C. For the molecule `CN1CCN(c2cccc3c2OC(C(=O)Nc2ccc(N4CCOCC4)cc2)CC3)CC1` (racemic) [Example 75, racemic-8-(4-Methyl-piperazin-1-yl)-chroman-2-carboxylic acid (4-morpholin-4-yl-phenyl)-amide], the melting point was in the range of 215 to 216 °C. On to `CN1CCN(c2cccc3c2OC(C(=O)Nc2ccc(N4CCOCC4)cc2)CC3)CC1` (single isomer, unassigned; (-)) [Example 77, (−)-8-(4-Methyl-piperazin-1-yl)-chroman-2-carboxylic acid (4-morpholin-4-yl-phenyl)-amide], for which the melting point was 205.5 to 207 °C. For the molecule `CN1CCN(c2cccc3c(=O)cc(-c4nc5ccc(N6CCOCC6)cc5o4)oc23)CC1` [Example 21, 8-(4-Methyl-piperazin-1-yl)-2-(6-morpholin-4-yl-benzooxazol-2-yl)-chromen-4-one], the melting point is 158.1 to 158.8 °C. As for `CCNC(=O)N1CCN(c2ccc(NC(=O)c3cc(=O)c4cc(F)cc(N5CCN(C)CC5)c4o3)cc2)CC1` [Example 81, 4-[4-({1-[6-Fluoro-8-(4-methyl-piperazin-1-yl)-4-oxo-4H-chromen-2-yl]-methanoyl}-amino)-phenyl]-piperazine-1-carboxylic acid ethylamide], the melting point fell in the range of 236 to 238 °C. On to `CN1CCN(c2cccc3c(=O)cc(C(=O)N(C)c4ccc(N5CCOCC5)cc4)oc23)CC1` [Example 25, 8-(4-Methylpiperazin-1-yl)-4-oxo-4H-chromene-2-carboxylic acid methyl-(4-morpholin-4-yl-phenyl)amide], for which the melting point lay within 245 to 246.8 °C.

Turning to `CCC(=O)N1CCN(c2ccc(NC(=O)c3cc(=O)c4cc(F)cc(N5CCN(C)CC5)c4o3)cc2)CC1` [Example 72, 6-Fluoro-8-(4-methyl-piperazin-1-yl)-4-oxo-4H-chromene-2-carboxylic acid [4-(4-propionyl-piperazin-1-yl)-phenyl]-amide], in data set [1], the “activity” value is on record as “demonstrate activity”. As to `CN1CCN(c2cccc3c2OC(C(=O)Nc2ccc(N4CCOCC4)cc2)CC3)CC1` (single isomer, unassigned; (+)) [Example 76, (+)-8-(4-Methyl-piperazin-1-yl)-chroman-2-carboxylic acid (4-morpholin-4-yl-phenyl)-amide], the melting point lay within 206 to 207 °C.

`COc1cc(N2CCN(C)CC2)c2oc(C(=O)Nc3ccc(N4CCOCC4)cc3)cc(=O)c2c1` [Example 31, 6-Methoxy-8-(4-methyl-piperazin-1-yl)-4-oxo-4H-chromene-2-carboxylic acid (4-morpholin-4-yl-phenyl)-amide]: the melting point lay in the range of 234 to 236 °C. Further, the “activity” value in data set [1] is given as “demonstrate activity”. In the case of `CN1CCN(c2cccc3c2OC(C(=O)Nc2ccc(N4CCOCC4)cc2)CC3=O)CC1` (racemic) [Example 78, racemic-8-(4-methyl-piperazin-1-yl)-4-oxo-chroman-2-carboxylic acid (4-morpholin-4-yl-phenyl)-amide], the melting point is 215 to 216 °C.

`CCC(=O)N1CCN(c2ccc(NC(=O)c3cc(=O)c4cc(OC)cc(N5CCN(C)CC5)c4o3)cc2)CC1` [Example 44, 6-Methoxy-8-(4-methyl-piperazin-1-yl)-4-oxo-4H-chromene-2-carboxylic acid [4-(4-propionyl-piperazin-1-yl)-phenyl]-amide]: the “activity” value in data set [1] is reported as “demonstrate activity”.
